Measured values published in patent publication US12590108B2, “Boracic acid compound” (Phaeno Therapeutics Co., Ltd, priority 2020, dated 2026).
Like-named read-outs stand apart in the source and are kept apart here. Values belong to the compound of their own block, whether it stands above or below them.

Experiments:
[1] = Pharmacokinetics of the compound in rats (intravenous and oral); format: in vivo; conditions: male, SD, plasma, rat; for Vd: read-out: Vdss
Experimental: The pharmacokinetic characteristics of the compound in rodents after intravenous injection and oral administration were tested by standard protocol. Specifically, the fasting SD male rats in the experiment were given the candidate compounds by intravenous injection and oral administration. Both oral preparation and intravenous preparation were prepared into 10 mg/mL or 30 mg/mL clear solutions with physiological saline and were administered by intravenous bolus or gavage for 5 minutes. Plasma samples were collected and analyzed by LC-MS/MS method, and pharmacokinetic parameters were calculated.

[2] = test system: Klebsiella pneumoniae ATCC BAA-1705; assay: Mouse lung infection model, bacterial load; format: in vivo, CD-1 female mice; conditions: endpoint 12 h
Experimental: 36 CD-1 female mice were divided into 12 cages with 3 […] in each cage. The day of infection was denoted as day 0.
Immunosuppressant cyclophosphamide at 150 mg/kg was injected intraperitoneally on day −4 and immunosuppressant cyclophosphamide at 100 mg/kg was injected intraperitoneally on day −1 to induce immunodeficient mice.
On day −1, the strain Klebsiella pneumoniae ATCC BAA-1705 was resuscitated on an MHA plate. Resuscitated colonies were picked and dissolved in sterile physiological saline to prepare a bacterial solution with a concentration of 2.75E+08 CFU/mL for lung infection by nasal drip. The initial time of infection was denoted as 0 h, and 50 μL of the bacterial solution was injected into each mouse by nasal drip at 0 h, that is, the inoculation amount was 1.38E+07 CFU/mouse. 2 h after infection, dosing was performed according to the experimental scheme. The specific experimental scheme was as follows (see Table 6): • (1) 2 h after infection: for the 1st cage of mice, at the endpoint, lung tissue was taken and placed in 10 mL of sterile physiological saline, the tissue was homogenized by a homogenizer, and the homogenate was diluted in a gradient and spotted in a plate, with two replicates for each mouse. • (2) 2 h after infection: the 2nd to 12th cages were respectively treated at 10 mL/kg by volume according to the body weight of the mice, the 2nd cage of mice were given a vehicle by intravenous injection every 2 h, and the endpoint was 12 h; the 3rd cage of mice were given 100 mg/kg of meropenem by intravenous injection every 2 h, and the endpoint was 12 h; the 4th cage of mice were given 100 mg/kg of meropenem and 20 mg/kg of QPX7728 by intravenous injection every 2 h, and the endpoint was 12 h; the 5th cage of mice were given 100 mg/kg of meropenem and 100 mg/kg of compound 15 by intravenous injection every 2 h, and the endpoint was 12 h; the 6th cage of mice were given 100 mg/kg of meropenem and 20 mg/kg of compound 15 by intravenous injection every 2 h, and the endpoint was 12 h; the 7th cage of mice were given 100 mg/kg of meropenem and 4 mg/kg of compound 15 by intravenous injection every 2 h, and the endpoint was 12 h; the 8th cage of mice were given 100 mg/kg of cefepime by intravenous injection every 2 h, and the endpoint was 12 h; the 9th cage of mice were given 100 mg/kg of cefepime and 20 mg/kg of QPX7728 by intravenous injection every 2 h, and the endpoint was 12 h; the 10th cage of mice were given 100 mg/kg of cefepime and 100 mg/kg of compound 15 by intravenous injection every 2 h, and the endpoint was 12 h: the 11th cage of mice were given 100 mg/kg of cefepime and 20 mg/kg of compound 15 by intravenous injection every 2 h, and the endpoint was 12 h; and the 12th cage of mice were given 100 mg/kg of cefepime and 4 mg/kg of compound 15 by intravenous injection every 2 h, and the endpoint was 12 h. At the endpoint, lung tissue was taken and placed in 10 mL of sterile physiological saline, the tissue was homogenized by a homogenizer, and the homogenate was diluted in a gradient and spotted in a plate, with two replicates for each mouse. The bacterial load in the lung tissue of the mice was counted, and the experiment was summarized as follows (see Table 7): […]

[3] = test system: Escherichia coli ARLG-2829 (NDM-5, OXA-1); assay: MIC shift, liquid microdilution, test compound fixed at 8 μg/mL; format: cell-based
Experimental: (§1) Preparation of compound mother plate: On the day of the experiment, the compound to be tested (the final concentration was 0.3125 to 20 μg/mL) and meropenem (the final concentration ranged from 1 to 64 μg/mL) were dissolved in a corresponding solvent (sterile ddH2O or DMSO) to form 100× mother liquors with the highest test concentration, and the compound to be tested and meropenem were then subjected to 2-fold series gradient dilution in a V-bottom 96-well plate to obtain 100× working solutions with the final concentration.
(§2) Preparation of inoculation solution: Fresh bacterial clones were picked from an overnight Mueller Hinton II Agar medium (MHA, Cat. No. 211438, BD BBLTM) plate, suspended in sterilized physiological saline, and adjusted to a concentration of 1×10^8 CFU/mL, and the suspension was further diluted to 5-10^5 CFU/mL with Cation-Adjusted Mueller Hinton II Broth (MHB, Catalog #212332, BD BBLTM).
(§3) Detection of minimum inhibitory concentration (MIC): 1 μL of the compound to be tested and the meropenem working solution were transferred to the corresponding wells to be tested in a round-bottomed 96-well plate (Catalog #3788, Corning), and 98 μL of the inoculation solution was added to the round-bottomed 96-well plate containing drugs, which was an MIC test plate; and after the plate was inverted and cultured at 37° C. for 20-24 h, the MIC value was read, and the minimum inhibitory concentration for inhibiting bacterial growth was defined as MIC.
(§4) The test compound was tested for minimum inhibitory concentration against 5 strains of Klebsiella pneumoniae ATCC BAA-1705 (KPC-2), ATCC BAA-2470 (NDM-1), ARLG-1196 (CTM-1 group, SHA NDM, TEM), NCTC 13440 (VIM-1), and NCTC 13439 (VIM), and one strain of Escherichia coli ARLG-2829 (NDM-5, OXA-1). According to the requirements of the Institute of Clinical And Laboratory Standard (CLSI), the minimum inhibitory concentration (MIC) of each drug combination was determined by liquid microdilution method under the premise of fixing the concentration of the compound to be tested at 8 μg/mL. The test method was the same as above, and the concentration of meropenem ranged from 0.125 to 8 μg/mL.

[4] = test system: Klebsiella pneumoniae ATCC BAA-2470 (NDM-1); assay: as above; format: cell-based; conditions: ATCCBAA2470
Experimental: as §1, §2, §3, §4

[5] = 100 mg/kg, intravenous bolus 100 mpk
[6] = 300 mg/kg, intravenous bolus 300 mpk

AUC(0-t) [1, 5]: 549 µg·h/mL
C0 [1, 5]: 580 µg/mL
clearance [1, 5]: 0.181 L/h/kg
half-life [1, 5]: 3.9 h
Vd [1, 5]: 0.583 L/kg
AUC(0-t) ([1]; 100 mg/kg, oral 100 mpk): 278 µg·h/mL
Cmax ([1]; 100 mg/kg, oral 100 mpk): 35.2 µg/mL
Tmax ([1]; 100 mg/kg, oral 100 mpk): 2 h
half-life ([1]; 100 mg/kg, oral 100 mpk): 4.99 h
bioavailability ([1]; 100 mg/kg, oral 100 mpk, AUC0-inf (100 mpk PO)/AUC0-inf (100 mpk IV)): 52.2%
AUC(0-t) [1, 6]: 1160 µg·h/mL
C0 [1, 6]: 1390 µg/mL
clearance [1, 6]: 0.257 L/h/kg
half-life [1, 6]: 4.56 h
Vd [1, 6]: 0.96 L/kg
SMILES: CCOc1ccc2c(c1C(=O)O)O[B-](O)(O)CO2 [Compound 15]
Average CFU in mice (lung tissue) ([2]; cefepime 100 mg/kg + inhibitor 4 mg/kg i.v. q2h): 2.38E+06 CFU/mouse
Average CFU in mice (lung tissue) ([2]; cefepime 100 mg/kg + inhibitor 20 mg/kg i.v. q2h): 3.73E+05 CFU/mouse
Average CFU in mice (lung tissue) ([2]; cefepime 100 mg/kg + inhibitor 100 mg/kg i.v. q2h): 1.84E+05 CFU/mouse
Average CFU in mice (lung tissue) ([2]; meropenem 100 mg/kg + inhibitor 4 mg/kg i.v. q2h): 6.83E+07 CFU/mouse
Average CFU in mice (lung tissue) ([2]; meropenem 100 mg/kg + inhibitor 20 mg/kg i.v. q2h): 6.04E+06 CFU/mouse
Average CFU in mice (lung tissue) ([2]; meropenem 100 mg/kg + inhibitor 100 mg/kg i.v. q2h): 7.67E+05 CFU/mouse

SMILES: C[C@@H](O)[C@H]1C(=O)N2C(C(=O)O)=C(S[C@@H]3CN[C@H](C(=O)N(C)C)C3)[C@H](C)[C@H]12 [Meropenem, meropenem, reference compound]
Average CFU in mice (lung tissue) ([2]; antibiotic alone 100 mg/kg i.v. q2h): 2.73E+08 CFU/mouse
MIC [3]: 128 mg/L
MIC [4]: 128 mg/L
